Assay results reported in patent US5506213A, “Adminstration of 2'-halo-2'-deoxy adenosine to treat inflammatory bowel disease” (priority 1994, dated 1996).

Assays:
[1] = test system: human fibroblast cell line GM01380; assay: In vitro cytotoxicity toward human fibroblast cell line (MTT reduction assay); format: cell-based; settings: 20 nM CdA, five days
Procedure: FIG. 2 is a graph illustrating the dose-response cytotoxicity of 2-chlorodeoxyadenosine (CdA) towards normal human monocytes (open squares), the human fibroblast cell line, GM01380, which is from normal fetal lung (open diamonds) and normal human lymphocytes (closed diamonds), when cultured in vitro. Cells were cultured in vitro as described in Example 2 for five days in the presence of varying concentrations of CdA from 0 to 125 nanomolar (nM), after which time viable cells were determined. The percentage of viable cells remaining after treatment (ordinate) is plotted against the concentration of CdA utilized (abscissa), on a linear scale. The effect of the presence of deoxycytidine (dCyd, 100 μM) on CdA toxicity toward monocytes (closed squares) is also illustrated. […]
Toxicity towards the monocytes and fibroblasts was determined by a modification of the MTT reduction assay described in Mosmann (1983) J. Immunol. […]
Viable cell numbers were determined using a Dynatech microplate spectrophotometer, measuring absorbance at a wavelength of 570 nanometers (nm), using a reference wavelength of 630 nm. The assay could detect as few as 2000 unactivated monocytes, and the absorbance of MTT formazan at 570 nm was linear with respect to the number of monocytes over a range of about 2.5-20×10^3 cells.

[2] = test system: IL-6; assay: Spontaneous IL-6 secretion by cultured monocytes, B9.9 hybridoma bioassay; format: cell-based, human
Procedure: FIG. 6 is a graph that illustrates the effects of relatively low doses of CdA used to contact monocytes for a 72 hour time period. Monocyte release of interleukin-6 (IL-6; closed diamonds) and phagocytosis of antibody-coated red blood cells (RBC; closed squares) were examined, as was the viability of the cultured monocytes (open squares). Effects are expressed as a percentage of control values versus the CdA concentration in nanomoles (nM).
The ability of dialyzed culture supernatants to promote proliferation of B9.9 hybridoma cells is a measure of IL-6 activity (Helle et al. (1988) Eur. J. Immunol., 18:1535-1540). Monocytes spontaneously secrete IL-6 upon adherence to plastic during short-term in vitro culture (Guerne et al. (1989) J. Clin. Invest., 83:585-592). Monocytes cultured in autologous plasma 20 percent for three days secreted approximately 18 U per ml of IL-6, as determined by the bioassay standard curve using rIL-6.
The spontaneous secretion, of IL-6 by cultured monocytes was measured by the hybridoma growth factor bioassay as described by Guerne et al. (1989) J. Clin. Invest., 83:585-592. In this assay, the proliferation of a B9.9 murine hybridoma subclone is dependent on the presence of IL-6. […]

Structure (SMILES): Nc1nc(Cl)nc2c1ncn2[C@H]1C[C@H](O)[C@@H](CO)O1 [CdA, 2-chloro-9,1'-beta-D-2'-deoxyribosyladenine]
- toxicity on the growth of fibroblast cells [1]: no appreciable toxicity
- supernatant IL-6 ([2]; cytotoxic concentrations of CdA): high levels of IL-6
- spontaneous secretion of IL-6 into the culture supernatant ([2]; sub-toxic concentrations of CdA, three days): inhibited the spontaneous secretion of IL-6
